{
  "source": "patent US20240342159A1",
  "about": "“VALBENAZINE FOR USE IN THE ADD-ON TREATMENT OF SCHIZOPHRENIA” (Neurocrine Biosciences, Inc., priority 2021, published 2024)",
  "key": {"[1]": {"test": "central nervous system, respiratory and cardiovascular safety pharmacology studies", "format": "in vivo", "details": "compared with human exposure"}, "[2]": {"system": "rabbits", "test": "embryo/fetal development study, rabbits", "format": "in vivo, rabbit", "method": "(§1) The NOAEL for embryo/fetal development in rats and rabbits was 15 mg/kg/day and 50 mg/kg/day, respectively. […] Valbenazine was negative in genotoxicity assays (in vitro Ames and chromosomal aberration assays and an in vivo rat micronucleus test)."}, "[3]": {"test": "embryo/fetal development study, rabbits", "format": "in vivo, rabbit", "details": "rabbit, in vivo", "method": "as §1"}, "[4]": {"system": "rats", "test": "carcinogenicity study, rats", "format": "in vivo, rat"}, "[5]": {"system": "adults with TD", "test": "adverse reactions in 3 placebo-controlled studies in adults with tardive dyskinesia", "format": "in vivo, human", "details": "6-week treatment"}, "[6]": {"test": "in vitro chromosomal aberration assay", "format": "cell-based", "method": "as §1"}, "[7]": {"system": "cytochrome P450 (CYP) enzyme", "test": "cytochrome P450 (CYP) enzyme inhibition or induction", "format": "in vitro ADME", "details": "at pharmacologically relevant concentrations"}, "[8]": {"system": "mice", "test": "repeat-dose nonclinical toxicology study, mouse", "format": "in vivo"}, "[9]": {"system": "QT interval", "test": "QT interval prolongation in clinical use", "format": "in vivo, human"}, "[10]": {"test": "in vitro Ames genotoxicity assay", "format": "cell-based", "method": "as §1"}, "[11]": {"system": "rat", "test": "in vivo rat micronucleus test", "method": "as §1"}, "[12]": {"system": "hemizygous Tg.rasH2 mice", "test": "carcinogenicity study, hemizygous Tg.rasH2 mice", "format": "in vivo, mouse"}, "[13]": {"test": "clinical safety signals (cardiovascular, laboratory, vital signs, serum prolactin, suicidality)", "format": "in vivo, human"}, "[14]": {"system": "dogs", "test": "repeat-dose nonclinical toxicology study, dog", "format": "in vivo"}, "[15]": {"system": "valbenazine-treated subjects", "test": "serious adverse events and deaths in the entire valbenazine clinical development program", "format": "in vivo, human", "description": "(§2) Common treatment-emergent adverse events (TEAEs) in pediatric subjects with TS with incidence >5% in the valbenazine treatment groups and with a higher incidence than placebo include headache, somnolence, sedation, upper respiratory tract infection, insomnia, fatigue, vomiting, and suicidal ideation. In the entire valbenazine clinical development program as of 10 Apr. 2021, treatment-emergent serious adverse events (SAEs) occurring in 3 or more valbenazine-treated subjects each were schizophrenia, suicidal ideation, chronic obstructive pulmonary disease, syncope, abdominal pain, depression, mental status changes, and schizoaffective disorder.\nTen deaths have been reported in completed and ongoing valbenazine studies conducted by NBI: 9 occurred in adult subjects with TD and 1 adult subject with HD. Eight deaths occurred in subjects taking valbenazine, 1 occurred in a subject taking placebo, and 1 remains blinded."}, "[16]": {"system": "rats", "test": "repeat-dose nonclinical toxicology study, rat", "format": "in vivo"}, "[17]": {"biological_target": "P-glycoprotein (Homo sapiens, UniProt P08183)", "sequence (P08183 whole entry)": "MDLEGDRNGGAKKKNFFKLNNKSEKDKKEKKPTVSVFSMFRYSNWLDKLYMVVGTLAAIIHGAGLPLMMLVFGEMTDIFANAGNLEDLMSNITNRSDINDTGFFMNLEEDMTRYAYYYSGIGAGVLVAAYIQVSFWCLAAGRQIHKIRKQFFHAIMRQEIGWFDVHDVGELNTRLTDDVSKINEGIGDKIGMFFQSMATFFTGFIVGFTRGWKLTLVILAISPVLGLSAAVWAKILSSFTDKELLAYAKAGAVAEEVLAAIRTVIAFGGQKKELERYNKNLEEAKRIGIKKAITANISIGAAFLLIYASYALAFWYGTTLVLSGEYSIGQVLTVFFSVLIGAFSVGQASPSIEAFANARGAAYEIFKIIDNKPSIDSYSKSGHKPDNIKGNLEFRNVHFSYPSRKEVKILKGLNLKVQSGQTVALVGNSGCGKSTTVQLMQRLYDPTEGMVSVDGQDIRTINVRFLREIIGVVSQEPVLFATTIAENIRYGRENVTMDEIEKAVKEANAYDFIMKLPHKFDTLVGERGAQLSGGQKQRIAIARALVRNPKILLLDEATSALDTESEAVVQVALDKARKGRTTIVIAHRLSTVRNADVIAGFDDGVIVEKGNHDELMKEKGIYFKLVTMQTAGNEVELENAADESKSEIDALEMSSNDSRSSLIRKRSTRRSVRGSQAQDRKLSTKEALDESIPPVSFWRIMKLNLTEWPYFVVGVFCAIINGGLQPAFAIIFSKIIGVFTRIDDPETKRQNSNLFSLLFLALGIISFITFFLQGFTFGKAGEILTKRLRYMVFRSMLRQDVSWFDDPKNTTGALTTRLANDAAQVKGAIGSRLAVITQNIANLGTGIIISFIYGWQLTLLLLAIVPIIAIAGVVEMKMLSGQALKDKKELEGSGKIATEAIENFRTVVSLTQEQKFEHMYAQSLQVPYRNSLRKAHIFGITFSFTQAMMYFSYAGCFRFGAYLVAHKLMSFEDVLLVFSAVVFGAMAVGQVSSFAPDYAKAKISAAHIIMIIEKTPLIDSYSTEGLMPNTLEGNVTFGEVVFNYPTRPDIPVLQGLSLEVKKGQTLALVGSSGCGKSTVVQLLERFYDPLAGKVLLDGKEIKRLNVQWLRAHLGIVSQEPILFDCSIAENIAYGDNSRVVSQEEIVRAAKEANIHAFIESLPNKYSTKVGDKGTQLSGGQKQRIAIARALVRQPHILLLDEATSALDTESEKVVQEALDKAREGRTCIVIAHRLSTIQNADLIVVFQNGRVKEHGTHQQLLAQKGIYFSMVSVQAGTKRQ", "test": "P-glycoprotein inhibition", "format": "in vitro ADME", "details": "only at concentrations that could be achieved in the gastrointestinal tract"}, "[18]": {"test": "embryo/fetal development study, rats", "format": "in vivo, rat", "details": "rat, in vivo", "method": "as §1"}, "[19]": {"system": "rats", "test": "embryo/fetal development study, rats", "format": "in vivo, rat", "method": "as §1"}, "[20]": {"system": "panel of other drug transporters", "test": "inhibition of a panel of other drug transporters", "format": "in vitro ADME"}, "[21]": {"system": "rat fertility", "test": "rat fertility study", "format": "in vivo", "details": "10 mg/kg/day"}, "[22]": {"test": "rat fertility study", "format": "in vivo", "details": "rat, in vivo"}, "[23]": {"system": "pediatric subjects with TS", "test": "treatment-emergent adverse events in pediatric subjects with Tourette Syndrome", "format": "in vivo, human", "details": "higher incidence than placebo", "description": "as §2"}, "[24]": {"test": "metabolism of valbenazine by hydrolysis", "format": "in vitro ADME"}, "[25]": {"biological_target": "CYP2D6 (Homo sapiens, UniProt P10635)", "sequence (P10635 whole entry)": "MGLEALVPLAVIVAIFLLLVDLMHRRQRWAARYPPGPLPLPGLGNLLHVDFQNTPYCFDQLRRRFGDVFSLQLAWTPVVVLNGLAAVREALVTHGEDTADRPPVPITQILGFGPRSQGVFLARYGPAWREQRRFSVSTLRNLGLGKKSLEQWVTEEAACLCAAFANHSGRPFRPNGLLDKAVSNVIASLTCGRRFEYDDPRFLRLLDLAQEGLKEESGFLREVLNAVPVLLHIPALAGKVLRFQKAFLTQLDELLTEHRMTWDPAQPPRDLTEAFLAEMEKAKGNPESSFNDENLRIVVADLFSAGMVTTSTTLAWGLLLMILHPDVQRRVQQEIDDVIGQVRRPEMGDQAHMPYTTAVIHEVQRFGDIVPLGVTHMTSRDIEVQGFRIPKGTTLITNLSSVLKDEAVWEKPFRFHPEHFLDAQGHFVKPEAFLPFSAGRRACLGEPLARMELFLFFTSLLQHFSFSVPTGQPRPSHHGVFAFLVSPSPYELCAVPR", "test": "metabolism of NBI-98782 by CYP2D6", "format": "in vitro ADME"}},
  "data": [
    {"compound": "COc1cc2c(cc1OC)[C@H]1C[C@@H](OC(=O)[C@@H](N)C(C)C)[C@H](CC(C)C)CN1CC2", "note": "[Valbenazine, L-valine, (2R,3R,11bR)-1,3,4,6,7,11b-hexahydro-9,10-dimethoxy-3-(2-methylpropyl)-2H-benzo[a]quinolizin-2-yl ester]", "values": [
      {"measurement": "systemic exposures at the NOAEL in safety pharmacology studies", "setting": "[1]", "value": "above those achieved at the highest proposed therapeutic dose in humans"},
      {"measurement": "teratogenicity", "setting": "[2]", "value": "no evidence of teratogenicity"},
      {"measurement": "NOAEL", "setting": "[3]", "value": 50, "unit": "mg/kg/day"},
      {"measurement": "tumors in carcinogenicity study", "setting": "[4]", "value": "did not increase tumors"},
      {"measurement": "incidence of anticholinergic effects (dry mouth, constipation, disturbance in attention, vision blurred, urinary retention)", "setting": "[5]", "value": 5.4, "unit": "%"},
      {"measurement": "incidence of balance disorders/fall (fall, gait disturbance, dizziness, balance disorder)", "setting": "[5]", "value": 4.1, "unit": "%"},
      {"measurement": "incidence of somnolence (somnolence, fatigue, sedation)", "setting": "[5]", "value": 10.9, "unit": "%"},
      {"measurement": "genotoxicity, chromosomal aberration assay", "setting": "[6]", "value": "negative"},
      {"measurement": "CYP enzyme inhibition or induction", "setting": "[7]", "value": "little or no cytochrome P450 (CYP) enzyme inhibition or induction"},
      {"measurement": "dose with no adverse effects, repeat-dose toxicology", "setting": "[8]", "value": 60, "unit": "mg/kg/day"},
      {"measurement": "degree of QT prolongation", "setting": "[9]; at concentrations expected with recommended dosing", "value": "not clinically significant"},
      {"measurement": "QT prolongation with higher valbenazine concentrations", "setting": "[9]; subjects taking a strong CYP2D6 or CYP3A4 inhibitor, or CYP2D6 poor metabolizers", "value": "QT prolongation clinically significant"},
      {"measurement": "genotoxicity, Ames assay", "setting": "[10]", "value": "negative"},
      {"measurement": "genotoxicity, rat micronucleus test", "setting": "[11]", "value": "negative"},
      {"measurement": "tumors in carcinogenicity study", "setting": "[12]", "value": "did not increase tumors"},
      {"measurement": "cardiovascular, laboratory or vital sign related safety signals", "setting": "[13]; human, in vivo", "value": "No cardiovascular, laboratory, or vital sign related safety signals"},
      {"measurement": "suicidality", "setting": "[13]; human, in vivo", "value": "does not appear to increase suicidality"},
      {"measurement": "serum prolactin", "setting": "[13]; mean changes with placebo considerably smaller", "value": "Increases in serum prolactin above normal laboratory ranges"},
      {"measurement": "dose with no adverse effects, repeat-dose toxicology", "setting": "[14]", "value": 15, "unit": "mg/kg/day"},
      {"measurement": "relationship of deaths to study drug", "setting": "[15]; all ten deaths", "value": "not related or unlikely related"},
      {"measurement": "deaths in subjects taking valbenazine", "setting": "[15]; of ten deaths in completed and ongoing studies", "value": "Eight"},
      {"measurement": "dose with no adverse effects, repeat-dose toxicology", "setting": "[16]", "value": 3, "unit": "mg/kg/day"},
      {"measurement": "inhibition of P-glycoprotein", "setting": "[17]", "value": "moderate inhibitor"},
      {"measurement": "NOAEL", "setting": "[18]", "value": 15, "unit": "mg/kg/day"},
      {"measurement": "teratogenicity", "setting": "[19]", "value": "no evidence of teratogenicity"},
      {"measurement": "inhibition of a panel of other drug transporters", "setting": "[20]", "value": "not an inhibitor"},
      {"measurement": "effect on rat fertility", "setting": "[21]", "value": "modest negative effect"},
      {"measurement": "NOAEL", "setting": "[22]", "value": 3, "unit": "mg/kg/day"},
      {"measurement": "incidence of common TEAEs: headache, somnolence, sedation, upper respiratory tract infection, insomnia, fatigue, vomiting, suicidal ideation", "setting": "[23]", "value": "> 5", "unit": "%"},
      {"measurement": "metabolic pathway", "setting": "[24]", "value": "metabolized by hydrolysis to NBI-98782"}
    ]},
    {"compound": "(+)-α-3-isobutyl-9,10-dimethoxy-1,3,4,6,7,11b-hexahydro-2H-pyrido[2,1-a]isoquinolin-2-ol [NBI-98782]", "values": [
      {"measurement": "systemic exposures at the NOAEL in safety pharmacology studies", "setting": "[1]", "value": "above those achieved at the highest proposed therapeutic dose in humans"},
      {"measurement": "subsequent metabolism", "setting": "[25]", "value": "metabolized in part by CYP2D6"}
    ]}
  ]
}
